Tests used:
Assay in all cases: relative viability (nuclei count vs DMSO), 5 days (fraction); higher = more cells survive
[1] = compound: COc1nc(N)nc2c1ncn2[C@@H]1O[C@H](CO)[C@@H](O)[C@@H]1O [Nelarabine] + Nc1ncn([C@H]2C[C@H](O)[C@@H](CO)O2)c(=O)n1 [Decitabine] (partner 2 µM)
How it was run: (§1)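 Lung cancer cell lines in 1536-well plates were dosed by pin tool the day after seeding, either with one drug alone or with a fixed anchor-drug dose plus five library-drug doses (not always all listed) in √10 steps. After 5 days, cells were fixed and their nuclei stained in one step (final 0.05% Triton X-100, 1% formaldehyde, 1 ug/ml Hoechst), then counted on 4× images. Relative viability is the nuclei count in treated wells divided by that in vehicle wells. Values are medians of duplicate plates.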

[2] = compound: COc1nc(N)nc2c1ncn2[C@@H]1O[C@H](CO)[C@@H](O)[C@@H]1O [Nelarabine] + O=C(c1cc(Cc2n[nH]c(=O)c3ccccc23)ccc1F)N1CCN(C(=O)C2CC2)CC1 [Olaparib] (partner 8 µM)
How it was run: as §1

[3] = compound: C=CCn1c(=O)c2cnc(Nc3ccc(N4CCN(C)CC4)cc3)nc2n1-c1cccc(C(C)(C)O)n1 [Adavosertib] + Nc1nc2[nH]cc(CCc3ccc(C(=O)N[C@@H](CCC(=O)O)C(=O)O)cc3)c2c(=O)[nH]1 [Pemetrexed] (partner 0.2 µM)
How it was run: as §1

[4] = compound: COc1nc(N)nc2c1ncn2[C@@H]1O[C@H](CO)[C@@H](O)[C@@H]1O [Nelarabine] + COc1cccc2cc(-c3nc([C@H]4CC[C@H](C(=O)O)CC4)n4ncnc(N)c34)[nH]c12 [OSI-027] (partner 0.5 µM)
How it was run: as §1

Row | Cell Line | relative viability ([1]; first compound 0.01 µM) | relative viability ([1]; first compound 0.03162 µM) | relative viability ([1]; first compound 0.1 µM) | relative viability ([1]; first compound 0.3162 µM) | relative viability ([1]; first compound 1 µM) | relative viability ([2]; first compound 0.01 µM) | relative viability ([2]; first compound 0.03162 µM) | relative viability ([2]; first compound 0.1 µM) | relative viability ([2]; first compound 0.3162 µM) | relative viability ([2]; first compound 1 µM) | relative viability ([3]; first compound 0.01 µM) | relative viability ([3]; first compound 0.03162 µM) | relative viability ([3]; first compound 0.1 µM) | relative viability ([3]; first compound 0.3162 µM) | relative viability ([4]; first compound 0.01 µM) | relative viability ([4]; first compound 0.03162 µM) | relative viability ([4]; first compound 0.1 µM) | relative viability ([4]; first compound 0.3162 µM) | relative viability ([4]; first compound 1 µM)
1 | NCI-H2347 | 0.576 | 0.596 | 0.615 | 0.626 | 0.593 | 0.658 | 0.417 | 0.527 | 0.574 | 0.52 | 0.463 | 0.422 | 0.437 | 0.439 | 0.505 | 0.431 | 0.409 | 0.389 | 0.369
2 | NCI-H1944 | 0.423 | 0.449 | 0.457 | 0.416 | 0.427 | 0.486 | 0.436 | 0.481 | 0.435 | 0.419 | 0.621 | 0.582 | 0.428 | 0.27 | 0.468 | 0.436 | 0.442 | 0.426 | 0.455
3 | NCI-H1395 | 0.678 | 0.65 | 0.723 | 0.7 | 0.704 | 0.465 | 0.431 | 0.403 | 0.464 | 0.519 | 0.766 | 0.938 | 0.604 | 0.689 | 0.611 | 0.587 | 0.632 | 0.615 | 0.634
4 | SK-MES-1 | 0.359 | 0.347 | 0.375 | 0.422 | 0.35 | 0.819 | 0.66 | 0.707 | 0.773 | 0.762 | 0.958 | 0.916 | 0.754 | 0.338 | 0.698 | 0.579 | 0.62 | 0.683 | 0.611
5 | ChaGo-K-1 | 0.559 | 0.532 | 0.52 | 0.539 | 0.539 | 0.324 | 0.404 | 0.452 | 0.433 | 0.428 | 0.271 | 0.255 | 0.258 | 0.257 | 0.676 | 0.444 | 0.663 | 0.758 | 0.589
6 | NCI-H1792 | 0.642 | 0.428 | 0.573 | 0.579 | 0.634 | 0.52 | 0.42 | 0.581 | 0.566 | 0.436 | 0.858 | 0.756 | 0.718 | 0.71 |  | 0.773 | 0.75 | 0.904 | 1.13
7 | NCI-H596 | 1.09 | 0.972 | 1.06 | 1.09 | 1.13 | 0.654 | 0.708 | 0.759 | 0.756 | 0.728 | 0.497 | 0.515 | 0.471 | 0.423 | 0.82 | 0.668 | 0.698 | 0.692 | 0.792
8 | NCI-H3122 | 0.419 | 0.299 |  | 0.463 | 0.476 | 0.668 | 0.607 |  | 0.745 | 0.661 | 0.211 | 0.199 | 0.188 | 0.173 | 1.34 | 1.01 |  | 1.11 | 1.03
9 | LXF-289 | 0.43 | 0.414 | 0.379 | 0.39 | 0.37 | 1.2 | 1.13 | 1.01 | 1.04 | 1.01 | 0.914 | 0.931 | 0.856 | 0.722 | 0.899 | 0.97 | 0.966 | 0.958 | 0.736

— the supplement of paper PMC10307832
